The text below walks through data of US20060135422A1, “Use of angiotensin receptor blockers (ARBs) to treat diseases associated with excess ACE” (priority 2003, published 2006).

Entries after “also recorded” stand apart in the source; their conditions may differ. Where two headings read alike, the source gives them in different places.

For one data set, the target named is tACE (Homo sapiens, UniProt P12821). Conditions: cited from earlier work.
For data set [1] the following is noted: cited from earlier work.
Data set [2] has as its target T1, ACE (Homo sapiens, UniProt P12821). Particulars: binding affinity, from [27]; cited from earlier work.
For the next data set, the target named is T2, serum ACE (Homo sapiens, UniProt P12821).
T2 construct: host or cells: serum
Particulars: cited from earlier work.

In data set [3] the test system is West Nile virus encephalitis. Kind of data set: case series: West Nile virus encephalitis treated with angiotensin II receptor blockade. Type of data set: in vivo, human. Conditions: for clinical outcome: patient 8, person with chronic lymphocytic leukemia, intravenous enalapril then losartan 50 mg daily. How it is done:
Table 2. […] A person with past history of tremors was admitted with fever, stiff neck, severe confusion, and gross tremors to a hospital in Omaha, Nebr. one night. Their serum was positive for IgM reactive to West Nile virus. They were begun on olmesartan 20 mg daily. […] They were discharged home on olmesartan 20 mg daily. • 2. A person with hypertension treated with a beta-blocker/thiazide combination drug, was admitted to a hospital in Omaha, Nebr. with right leg paralysis and paresthesias and weakness in their left leg. Their serum was positive for IgM reactive to West Nile virus. They were begun on losartan 50 mg daily. […] A person with a history of seizures was admitted one night to a hospital in Omaha, Nebr. with a fever and a grand mal seizure. They had been taking olmesartan 20 mg daily for mild hypertension. Their serum was positive for IgM reactive to West Nile virus. […] Their usual dose of olmesartan 20 mg daily was resumed thereafter. […] A person was admitted with fever, stiff neck, and severe confusion to a hospital in Omaha, Nebr. Their serum was positive for IgM antibodies reactive to West Nile virus. They were begun on losartan 50 mg daily. […] A person was admitted with fever, stiff neck, and severe confusion to a hospital in Omaha, Nebr. Their serum was positive for IgM antibodies reactive to West Nile virus. They were begun on losartan 50 mg daily. […] A person was admitted with fever, stiff neck, and severe confusion to a hospital in Pueblo, CO. Their serum was positive for IgM antibodies reactive to West Nile virus. They were begun on losartan 50 mg daily. […] A person with chronic lymphocytic leukemia was admitted with fever and obtundation to a hospital in Pueblo, CO. Their serum was positive by EIA for West Nile virus antibodies. […] Head CT and MRI scans were negative.

In data set [4] the target is T1, ACE. Conditions: cited from earlier work.
In data set [5] the test system is unresectable pancreatic cancer. Kind of data set: case report: unresectable pancreatic cancer, quinapril added. Type of data set: in vivo, human. Conditions: person, 5-FU and Naitrexone since February 2002, quinapril (60 mg) since November 2002; median survival of similar patients less than 4 months.
The test system of a further data set is chronic renal failure. Conditions: clinical comparison, from [20]; cited from earlier work.
The subject of a further data set is psoriasis. Type of data set: in vivo, human. Conditions: one person with type II diabetes, quinapril 200 mg/day (2 mg/kg/day); could stop daily methotrexate 75 mg.
The test system of a further data set is pulmonary hypertension. Conditions: clinical comparison, from [20,22]; cited from earlier work.
The test system of another data set is alopecia areata. Kind of data set: case reports: alopecia areata treated with an ARB. The format is in vivo, human.
The format of data set [6] is in vivo, human. Particulars: 40 mg po qhs; reduced from 98 mm Hg. How it is done:
Because many patients with an autoimmune disease such as alopecia greata, psoriasis, rheumatoid arthritis, multiple sclerosis, etc. are normotensive or even relatively hypotensive, an ACE inhibitor may not be the best choice for them. They might not be able to tolerate a sufficiently high dose of an ACE inhibitor, certainly any dose approaching 2 mg/kg/day. Instead, an AT1 receptor blocker appears to be effective at doses which cause minimal blood pressure (BP) reduction. […]

The mark [7] stands for this setting: pH 7.4, active moiety, calculated from [23].
The mark [8] stands for this setting: pH 7.4, active moiety, calculated from [24].
The mark [9] stands for this setting: patient 2, losartan 50 mg daily.

T1 sequence (P12821 30-1306): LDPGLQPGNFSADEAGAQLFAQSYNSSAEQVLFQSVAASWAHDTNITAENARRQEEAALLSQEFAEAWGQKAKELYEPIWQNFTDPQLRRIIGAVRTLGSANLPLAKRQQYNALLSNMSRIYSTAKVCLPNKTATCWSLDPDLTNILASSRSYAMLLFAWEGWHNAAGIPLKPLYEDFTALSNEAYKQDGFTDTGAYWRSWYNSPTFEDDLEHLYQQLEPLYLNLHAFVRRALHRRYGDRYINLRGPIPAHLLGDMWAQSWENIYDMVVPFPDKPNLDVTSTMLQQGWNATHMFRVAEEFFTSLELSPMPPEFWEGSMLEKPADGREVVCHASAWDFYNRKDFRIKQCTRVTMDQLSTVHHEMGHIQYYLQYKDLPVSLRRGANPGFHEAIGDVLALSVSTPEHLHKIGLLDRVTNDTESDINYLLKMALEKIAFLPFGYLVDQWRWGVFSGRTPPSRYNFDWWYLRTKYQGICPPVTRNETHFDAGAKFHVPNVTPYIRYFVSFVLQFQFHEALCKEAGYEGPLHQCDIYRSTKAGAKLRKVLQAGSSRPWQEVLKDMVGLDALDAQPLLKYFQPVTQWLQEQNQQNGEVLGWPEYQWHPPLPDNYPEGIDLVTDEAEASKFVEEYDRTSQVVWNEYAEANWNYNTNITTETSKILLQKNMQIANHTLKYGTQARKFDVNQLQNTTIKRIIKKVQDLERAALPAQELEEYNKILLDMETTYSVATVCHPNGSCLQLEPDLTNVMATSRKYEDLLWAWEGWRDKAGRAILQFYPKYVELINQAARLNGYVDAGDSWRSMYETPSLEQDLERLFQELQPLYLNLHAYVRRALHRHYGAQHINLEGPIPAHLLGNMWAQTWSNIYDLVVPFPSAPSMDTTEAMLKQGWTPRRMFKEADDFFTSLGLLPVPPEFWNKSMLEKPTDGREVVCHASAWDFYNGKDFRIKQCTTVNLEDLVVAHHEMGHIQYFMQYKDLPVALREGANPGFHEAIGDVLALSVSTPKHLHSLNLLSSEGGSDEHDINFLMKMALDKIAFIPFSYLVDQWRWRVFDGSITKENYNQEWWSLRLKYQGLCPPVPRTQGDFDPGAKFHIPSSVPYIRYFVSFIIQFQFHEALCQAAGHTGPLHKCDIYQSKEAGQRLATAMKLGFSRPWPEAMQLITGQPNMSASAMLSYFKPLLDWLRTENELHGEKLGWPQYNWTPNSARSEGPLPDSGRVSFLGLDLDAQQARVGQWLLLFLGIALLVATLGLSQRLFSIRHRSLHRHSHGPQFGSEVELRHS
T2 sequence (P12821 30-1232): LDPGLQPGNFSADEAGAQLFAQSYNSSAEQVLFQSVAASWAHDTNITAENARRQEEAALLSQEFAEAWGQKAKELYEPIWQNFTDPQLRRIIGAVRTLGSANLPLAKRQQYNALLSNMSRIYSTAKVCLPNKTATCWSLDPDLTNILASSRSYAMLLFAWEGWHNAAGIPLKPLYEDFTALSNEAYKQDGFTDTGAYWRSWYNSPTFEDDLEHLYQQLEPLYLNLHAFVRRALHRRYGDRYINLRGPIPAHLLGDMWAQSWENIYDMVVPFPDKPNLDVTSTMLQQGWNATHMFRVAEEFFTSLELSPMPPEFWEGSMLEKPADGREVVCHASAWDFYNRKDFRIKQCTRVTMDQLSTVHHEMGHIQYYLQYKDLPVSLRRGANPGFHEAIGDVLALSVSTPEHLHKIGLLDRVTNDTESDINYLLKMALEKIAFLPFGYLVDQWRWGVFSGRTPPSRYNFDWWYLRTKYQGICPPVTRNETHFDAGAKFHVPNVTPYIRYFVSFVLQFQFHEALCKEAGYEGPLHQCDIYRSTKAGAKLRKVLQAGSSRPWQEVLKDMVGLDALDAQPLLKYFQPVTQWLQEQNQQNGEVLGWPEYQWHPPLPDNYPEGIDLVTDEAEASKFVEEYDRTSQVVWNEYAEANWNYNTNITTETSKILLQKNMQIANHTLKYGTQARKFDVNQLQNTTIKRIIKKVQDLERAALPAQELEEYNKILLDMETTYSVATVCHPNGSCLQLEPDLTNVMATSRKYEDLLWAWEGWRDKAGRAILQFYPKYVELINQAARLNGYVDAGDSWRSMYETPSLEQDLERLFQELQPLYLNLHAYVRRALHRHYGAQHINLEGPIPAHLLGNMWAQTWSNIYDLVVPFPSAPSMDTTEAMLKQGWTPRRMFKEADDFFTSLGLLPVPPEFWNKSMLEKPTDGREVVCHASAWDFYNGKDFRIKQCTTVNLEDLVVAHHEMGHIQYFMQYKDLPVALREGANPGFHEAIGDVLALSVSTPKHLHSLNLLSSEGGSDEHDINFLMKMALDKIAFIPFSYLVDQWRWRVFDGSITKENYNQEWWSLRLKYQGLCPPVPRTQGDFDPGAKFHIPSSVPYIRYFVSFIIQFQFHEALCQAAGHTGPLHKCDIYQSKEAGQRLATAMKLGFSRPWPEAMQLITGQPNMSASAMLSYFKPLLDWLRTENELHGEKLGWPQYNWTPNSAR
tACE, sequence (P12821 other isoform, or with tags, fused parts or gaps): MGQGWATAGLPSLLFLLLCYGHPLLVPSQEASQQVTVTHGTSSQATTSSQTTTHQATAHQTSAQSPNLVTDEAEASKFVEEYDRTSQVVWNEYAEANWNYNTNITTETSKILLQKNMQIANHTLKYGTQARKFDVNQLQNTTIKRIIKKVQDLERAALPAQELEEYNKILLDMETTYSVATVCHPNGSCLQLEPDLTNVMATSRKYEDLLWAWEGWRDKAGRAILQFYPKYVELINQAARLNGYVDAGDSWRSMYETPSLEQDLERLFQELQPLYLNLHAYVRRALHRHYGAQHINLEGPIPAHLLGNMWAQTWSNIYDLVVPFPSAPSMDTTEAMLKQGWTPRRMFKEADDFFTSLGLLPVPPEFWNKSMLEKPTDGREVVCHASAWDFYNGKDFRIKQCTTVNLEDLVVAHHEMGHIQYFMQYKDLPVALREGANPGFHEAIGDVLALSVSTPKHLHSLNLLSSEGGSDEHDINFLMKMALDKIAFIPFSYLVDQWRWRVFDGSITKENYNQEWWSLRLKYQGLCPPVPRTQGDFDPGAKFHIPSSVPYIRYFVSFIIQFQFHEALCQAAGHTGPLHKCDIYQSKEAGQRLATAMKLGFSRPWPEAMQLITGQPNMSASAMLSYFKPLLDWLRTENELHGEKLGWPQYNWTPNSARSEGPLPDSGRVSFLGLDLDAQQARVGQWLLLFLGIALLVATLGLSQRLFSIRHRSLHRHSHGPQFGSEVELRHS

For `O[C@H](CS)[C@H](O)CS` (racemic) [dithiothreitol], the “inhibition of tACE's activity” value on tACE is reported as 78%.
Take `O=C(O)CN1C(=O)[C@@H](N[C@@H](CCc2ccccc2)C(=O)O)CCc2ccccc21` [Benazeprilat]: the “P(octanol:water)” value in [1] (setting [7]) was 3.0.
Turning to `C[C@H](CS)C(=O)N1CCC[C@H]1C(=O)O` [Captopril], the “P(octanol:water)” value is on record as 0.01 in data set [1] (setting [7]) and 0.004 in data set [1] (setting [8]).
Regarding `NCCCC[C@H](OP(=O)(O)CCCCc1ccccc1)C(=O)N1CCC[C@H]1C(=O)O` [Ceronapril], in data set [1] (setting [8]), the “P(octanol:water)” value is on record as less than 0.001.
On to `O=C(O)[C@H](CCc1ccccc1)N[C@H]1CCCN2CCC[C@@H](C(=O)O)N2C1=O` [Cilazaprilat], for which, in [1] (setting [7]), the “P(octanol:water)” value is reported as 1.7.
As for `O=C(O)[C@@H]1C[C@@H](C2CCCCC2)CN1C(=O)CP(=O)(O)CCCCc1ccccc1` [Fosinoprilat], the “P(octanol:water)” value in data set [1] (setting [8]) was 0.33.
On to `CCC[C@H](N[C@@H](C)C(=O)N1[C@H](C(=O)O)C[C@@H]2CCCC[C@@H]21)C(=O)O` [Perindoprilat], for which the “P(octanol:water)” value in [1] (setting [7]) is 0.44.
`C[C@H](N[C@@H](CCc1ccccc1)C(=O)O)C(=O)N1Cc2ccccc2C[C@H]1C(=O)O` [Quinaprilat]: in data set [1] (pH 7.4), the “P(octanol:water)” value is listed as 6.6.
Regarding `C[C@H](N[C@@H](CCc1ccccc1)C(=O)O)C(=O)N1[C@H](C(=O)O)C[C@@H]2CCC[C@@H]21` [Ramiprilat], the “P(octanol:water)” value in data set [1] (setting [7]) is recorded as 2.6; in data set [1] (setting [8]), 0.011. Further, the IC50 (in general, the point on the concentration scale where inhibition reaches its midpoint) at ACE [2] is 0.67 nM.
Take `C[C@H](N[C@@H](CCc1ccccc1)C(=O)O)C(=O)N1[C@H](C(=O)O)C[C@H]2CCCC[C@@H]21` [Trandolaprilat]: the “P(octanol:water)” value in data set [1] (setting [7]) is recorded as 10.47.
`C[C@H](CS)C(=O)N1C[C@@H](Sc2ccccc2)C[C@H]1C(=O)O` [Zofenoprilat]: in [1] (setting [8]), the “P(octanol:water)” value was 0.22.
`CCOC(=O)[C@H](CCc1ccccc1)N[C@@H](C)C(=O)N1CCC[C@H]1C(=O)O` [enalapril]: the “inhibition of serum ACE activity” value at serum ACE was “about 50%”. Besides, in data set [3], the clinical outcome is “remained in coma”. Further, the off time at ACE [4] is 4 h.
`CCCCc1nc(Cl)c(CO)n1Cc1ccc(-c2ccccc2-c2nn[nH]n2)cc1` [losartan]: the right leg paralysis result in data set [3] (setting [9]) is “no change”. The “time until paresthesias and weakness in left leg stopped” value in data set [3] (setting [9]) was in the range of 1 to 2 days. Further, in data set [3] (patient 3, losartan 50 mg twice in first 24 hr, usual olmesartan 20 mg daily resumed thereafter), the “time to full recovery” value is no more than 12 h. Moreover, the “time until meningoencephalitis disappeared” value in [3] (patient 4, losartan 50 mg daily) is no more than 48 h; in data set [3] (patient 5, losartan 50 mg daily), no more than 48 h; in [3] (patient 6, losartan 50 mg daily) it was no more than 24 h. For the same compound, the “time until disappearance of residual weakness and fatigue” value in [3] (patient 7, one month after meningoencephalitis, losartan 50 mg daily) is no more than 24 h. In addition, the clinical outcome in data set [3] is “remained in coma”.
On to `CCOC(=O)[C@H](CCc1ccccc1)N[C@@H](C)C(=O)N1Cc2ccccc2C[C@H]1C(=O)O` [quinapril], for which the survival entry in [5] was “still alive in November, 2003”. In the data set on chronic renal failure, the “effectiveness at delaying the progression of chronic renal failure” value is recorded as “more effective than ramipril”. For the same compound, in the data set with psoriasis, the response of psoriasis entry is on record as “put the patient's psoriasis into remission; also recorded: responded dramatically”. On ACE [4], the off time was 24 h.
Regarding `CCOC(=O)[C@H](CCc1ccccc1)N[C@@H](C)C(=O)N1[C@H](C(=O)O)C[C@@H]2CCC[C@@H]21` [ramipril], on serum ACE (from [20]), the “inhibition of serum ACE activity” value was roughly 100%. Also, the off time on ACE [4] (from [28-30]) was 24 h. For the same compound, in the data set on pulmonary hypertension, the “effectiveness at lowering pulmonary hypertension” value is on record as “more effective at lowering pulmonary hypertension than enlapril”.
`CCCCC(=O)N(Cc1ccc(-c2ccccc2-c2nnn[nH]2)cc1)[C@H](C(=O)O)C(C)C` [valsartan]: in the data set with alopecia areata (ARB stopped after 1 week, same patient), the “time until scalp hair loss resumed after stopping the ARB” value was 3 to 4 days. Also, in the data set on alopecia areata (active alopecia areata, child, 40 mg po qhs, n=1), the “time until hair loss stopped after starting the ARB” value is no more than 36 h. In addition, the “time for valsartan to have an effect” value in the data set on alopecia areata (more chronic form of alopecia areata, n=1) is recorded as “more than 5 days”. Further, in data set [6], the “systolic BP on treatment” value is given as 90 mm Hg.
